The source of these data is patent US6410558B1, “Fungicides for the control of take-all disease of plants” (Monsanto Technology LLC, priority 1991, dated 2002).

The subject of experiment [1] is Gaeumannomyces graminis var. tritici (Ggt). Put plainly: In vitro Assay: mycelial growth of Ggt on minimal media agar plates containing test compound. It counts as cell-based. The following applies: dark, 19-20° C., 4 to 5 days, diameter of mycelial growth; for inhibition at 0.1 ppm / inhibition at 1 ppm / inhibition at 10 ppm: Gaeumannomyces graminis; for inhibition at 0.1 ppm: read-out: In vitro (ppm) 0.1, Percent Inhibition; for inhibition at 1 ppm: read-out: In vitro (ppm) 1, Percent Inhibition; for inhibition at 10 ppm: read-out: In vitro (ppm) 10, Percent Inhibition. The method in brief: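 Ggt mycelial diameter read after 4 to 5 days in darkness at 19-20° C, from three 4-mm plugs placed on Czapek Dox minimal agar containing test compound delivered in acetone. Inhibition expressed as percent versus untreated plates, plug size (4 mm) subtracted from both.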

A further experiment concerns Ggt. The experiment in a line: In vivo Assay: control of Ggt on wheat grown in pots of Ggt-infested soil, root disease rating. Details: species or system Gaeumannomyces graminis var. tritici. As to conditions: 0.5 mg active ingredient per pot, 'Bergen' or 'Anza' wheat in Ggt-infested soil, after four weeks, vs untreated control; for pest or weed control at 0.5 mg/pot: Gaeumannomyces graminis, 672 h, read-out: In vivo, percent disease control. As for the experimental part: Compounds are tested for control of Ggt on ‘Bergen’ or ‘Anza’ varieties of wheat grown in 3-inch square pots containing soil infested with Ggt. The infestation is accomplished by mixing the soil with an inoculum prepared by growing Ggt on ¼ strength potato dextrose agar (4.875 g potato dextrose agar, 5.0 g Bacto agar, 500 mL distilled, deionized water) in plates and using plugs from the plates to infest sterile oats (400 cc whole oats, 350 mL deionized water, autoclaved). After a one-month incubation period at room temperature, the oats are dried and mixed with the soil at 4% v/v. Four wheat seeds are placed on top of the soil in each pot. The test compounds are prepared as an 1:9 acetone/water v/v solution containing 0.18% Tween® 20 to provide a treatment rate of 0.5 mg active ingredient per pot, treated with 3 mL test solution per pot. Five pots are used for each treatment level and the controls, which are untreated, inoculated and non-inoculated pots. After one hour drying time, the seeds are covered with more of the appropriate soil and a layer of vermiculite. The pots are placed in a growth chamber and watered each day. After four weeks, each pot is evaluated for evidence of disease by examination of the seminal roots of each plant under a dissecting microscope. A 0 to 5 rating scale having the following meanings is used:
0=no runner hyphae or lesions present
1=runner hyphae and a few small lesions present on <10% of root system
2=runner hyphae and small lesions present on 10-25% of root system
3=runner hyphae and lesions present on 25-50% of root system
4=runner hyphae and many, large, coalescing lesions on >50% of root system
5=root system and culm completely inundated with lesions and runner hyphae
From each set of five replicates a high and low score is eliminated and a replicate mean is calculated by the average of the remaining three scores. This mean score is then compared to the untreated control score and a percent disease control is calculated.

Some results are limits rather than exact numbers.

`CCN(CC)C(=O)c1c(C(F)F)ccc(F)c1[Si](C)(C)C` [Example 52, N,N-Diethyl-6-(difluoromethyl)-3-fluoro-2-(trimethylsilyl)benzamide]: the inhibition – broadly, the share of the control response that was lost under treatment – at 0.1 ppm in experiment [1] (0.1 ppm in minimal media agar) stood at 53%. In addition, the inhibition at 1 ppm in experiment [1] (1 ppm in minimal media agar) worked out at 81%. The inhibition at 10 ppm in experiment [1] (10 ppm in minimal media agar) was 98%. Moreover, the pest or weed control at 0.5 mg/pot in the experiment on Ggt is 96%.
Take `CCN(CC)C(=S)c1c(C)ccc(F)c1[Si](C)(C)C` [Example 53, N,N-Diethyl-3-fluoro-6-methyl-2-(trimethylsilyl)thiobenzamide]: the inhibition at 0.1 ppm in experiment [1] (0.1 ppm in minimal media agar) is 9%. For the same molecule, in experiment [1] (1 ppm in minimal media agar), the inhibition at 1 ppm amounted to 19%. Moreover, the inhibition at 10 ppm in experiment [1] (10 ppm in minimal media agar) is 95%. Moreover, in the experiment on Ggt, the pest or weed control at 0.5 mg/pot is 65%.
On the same counts, the results for `CCN(CC)C(=O)c1c(CO)ccc(F)c1[Si](C)(C)C` [Example 54, N,N-Diethyl-3-fluoro-6-(hydroxymethyl)-2-(trimethylsilyl)benzamide] are less than 0%, 2%, 43% and 52%.
On the same counts, the results for `CCN(CC)C(=O)c1c(CF)ccc(F)c1[Si](C)(C)C` [Example 55, N,N-Diethyl-3-fluoro-6-(fluoromethyl)-2-(trimethylsilyl)benzamide] are 49%, 81%, 100% and 100%.
As for `CCN(CC)C(=O)c1c(F)ccc(F)c1[Si](C)(C)C` [Example 56, N,N-Diethyl-3,6-difluoro-2-(trimethylsilyl)benzamide], in experiment [1] (0.1 ppm in minimal media agar), the inhibition at 0.1 ppm came to 10%. In addition, the inhibition at 1 ppm in experiment [1] (1 ppm in minimal media agar) was determined as 31%. In experiment [1] (10 ppm in minimal media agar), the inhibition at 10 ppm is 74%. Also, in the experiment with Ggt, the pest or weed control at 0.5 mg/pot worked out at 91%.
On the same counts, the results for `CCN(CC)C(=O)c1c(C(F)(F)F)cccc1[Si](C)(C)C` [Example 61, N,N-Diethyl-2-(trimethylsilyl)-6-(trifluoromethyl)benzamide] are 9%, 29%, 49% and 1%.
In the case of `CCN(CC)C(=O)c1c(C(F)(F)F)ccc(C(F)(F)F)c1[Si](C)(C)C` [Example 62, N,N-Diethyl-2-(trimethylsilyl)-3,6-bis(trifluoromethyl)benzamide], the inhibition at 0.1 ppm in experiment [1] (0.1 ppm in minimal media agar) was found to be 8%. In addition, the inhibition at 1 ppm in experiment [1] (1 ppm in minimal media agar) turned out to be 3%. Also, the inhibition at 10 ppm in experiment [1] (10 ppm in minimal media agar) turned out to be 69%. For the same molecule, the pest or weed control at 0.5 mg/pot in the experiment on Ggt amounted to 9%.
Taken in the same sequence, the figures for `CCN(CC)C(=O)c1c([Si](C)(C)C)ccc(C)c1Cl` [Example 65, N,N-Diethyl-2-chloro-3-methyl-6-(trimethylsilyl)benzamide] were 39%, 56%, 100% and 95%.
On the same counts, the results for `CCN(CC)C(=O)c1c(Cl)cccc1[Si](CC)(CC)CC` [Example 66, N,N-Diethyl-2-chloro-6-(triethylsilyl)benzamide] are less than 0%, less than 0%, 58% and 3%.
Taken in the same sequence, the figures for `CCN(CC)C(=O)c1c(Cl)cccc1[Si](C)(C)c1ccccc1` [Example 67, N,N-Diethyl-2-chloro-6-(dimethylphenylsilyl)benzamide] were less than 0%, 19%, 100% and less than 0%.
As to `CCN(CC)C(=O)c1c(Cl)cccc1[Si](C(C)C)(C(C)C)C(C)C` [Example 68, N,N-Diethyl-2-chloro-6-[tris(1-methylethyl)silyl]benzamide], the inhibition at 0.1 ppm in experiment [1] (0.1 ppm in minimal media agar) was 8%. The inhibition at 1 ppm in experiment [1] (1 ppm in minimal media agar) is less than 0%. Also, the inhibition at 10 ppm in experiment [1] (10 ppm in minimal media agar) was found to be 41%. Further, the pest or weed control at 0.5 mg/pot with Ggt was less than 0%.
Turning to `CCN(CC)C(=O)c1c(Cl)cccc1[Si](C)(C)CCl` [Example 69, N,N-Diethyl-2-chloro-6-[(chloromethyl)dimethylsilyl]benzamide], the inhibition at 0.1 ppm in experiment [1] (0.1 ppm in minimal media agar) amounted to 51%. Further, in experiment [1] (1 ppm in minimal media agar), the inhibition at 1 ppm amounted to 81%. Further, the inhibition at 10 ppm in experiment [1] (10 ppm in minimal media agar) came to 100%. For the same molecule, in the experiment on Ggt, the pest or weed control at 0.5 mg/pot was found to be 67%.
As to `CCN(CC)C(=O)c1c(Cl)ccc(C)c1[Si](C)(C)C` [Example 71, N,N-Diethyl-6-chloro-3-methyl-2-(trimethylsilyl)benzamide], in experiment [1] (0.1 ppm in minimal media agar), the inhibition at 0.1 ppm was determined as 14%. Moreover, in experiment [1] (1 ppm in minimal media agar), the inhibition at 1 ppm was 8%. In addition, in experiment [1] (10 ppm in minimal media agar), the inhibition at 10 ppm was less than 0%. The pest or weed control at 0.5 mg/pot in the experiment on Ggt is 50%.
Taken in the same sequence, the figures for `CCN(CC)C(=S)c1cccc(F)c1[Si](C)(C)C` [Example 74, N,N-Diethyl-3-fluoro-2-(trimethylsilyl)thiobenzamide] were 7%, 31%, 93% and 47%.
In the case of `CCSC(=O)c1c(Cl)cccc1[Si](C)(C)C` [Example 77, 2-Chloro-6-(trimethylsilyl)benzenecarbothioic acid, S-ethyl ester], the inhibition at 0.1 ppm in experiment [1] (0.1 ppm in minimal media agar) stood at 13%. In experiment [1] (1 ppm in minimal media agar), the inhibition at 1 ppm was 47%. Further, the inhibition at 10 ppm in experiment [1] (10 ppm in minimal media agar) stood at 100%. The pest or weed control at 0.5 mg/pot in the experiment with Ggt is less than 0%.
Consider `CCNC(=O)c1c(C(F)(F)F)cccc1[Si](C)(C)C` [Example 82, N-Ethyl-2-(trifluoromethyl)-6-(trimethylsilyl)benzamide], for which, in experiment [1] (0.1 ppm in minimal media agar), the inhibition at 0.1 ppm worked out at 30%. Moreover, the inhibition at 1 ppm in experiment [1] (1 ppm in minimal media agar) is less than 0%. In experiment [1] (10 ppm in minimal media agar), the inhibition at 10 ppm worked out at 57%. Moreover, the pest or weed control at 0.5 mg/pot in the experiment on Ggt was found to be 58%.
Regarding `CCNC(=O)c1c(Cl)cccc1[Si](C)(C)CCl` [Example 83, N-Ethyl-2-chloro-6-[(chloromethyl)dimethylsilyl]benzamide], the inhibition at 0.1 ppm in experiment [1] (0.1 ppm in minimal media agar) turned out to be 100%. Further, the inhibition at 1 ppm in experiment [1] (1 ppm in minimal media agar) turned out to be 100%. Also, in experiment [1] (10 ppm in minimal media agar), the inhibition at 10 ppm amounted to 100%. Further, the pest or weed control at 0.5 mg/pot in the experiment on Ggt stood at 99%.
For the molecule `C=C[Si](C)(C)c1cccc(Cl)c1C(=O)NCC` [Example 87, N-Ethyl-2-chloro-6-(ethenyldimethylsilyl)benzamide], the inhibition at 0.1 ppm in experiment [1] (0.1 ppm in minimal media agar) amounted to 93%. For the same molecule, the inhibition at 1 ppm in experiment [1] (1 ppm in minimal media agar) was determined as 100%. For the same molecule, in experiment [1] (10 ppm in minimal media agar), the inhibition at 10 ppm was determined as 100%. In the experiment with Ggt, the pest or weed control at 0.5 mg/pot stood at 96%.
On to `CCNC(=O)c1c(Cl)cccc1OC(C)(C)C` [Example 89, N-Ethyl-2-chloro-6-(1,1-dimethylethoxy)benzamide], for which, in experiment [1] (0.1 ppm in minimal media agar), the inhibition at 0.1 ppm was 19%. For the same molecule, the inhibition at 1 ppm in experiment [1] (1 ppm in minimal media agar) was found to be 85%. In addition, in experiment [1] (10 ppm in minimal media agar), the inhibition at 10 ppm was determined as 100%. The pest or weed control at 0.5 mg/pot in the experiment on Ggt was determined as 96%.
With `CCCN(C(=O)c1c(Cl)cccc1[Si](C)(C)C)C(C)C` [Example 95, 2-Chloro-N-(1-methylethyl)-N-propyl-6-(trimethylsilyl)benzamide], in experiment [1] (0.1 ppm in minimal media agar), the inhibition at 0.1 ppm was less than 0%. Also, the inhibition at 1 ppm in experiment [1] (1 ppm in minimal media agar) was determined as 62%. Further, the inhibition at 10 ppm in experiment [1] (10 ppm in minimal media agar) amounted to 100%. Further, in the experiment on Ggt, the pest or weed control at 0.5 mg/pot came to 63%.
Taken in the same sequence, the figures for `CCN(CC)C(=O)c1c(CF)cccc1[Si](C)(C)C` [Example 98, N,N-Diethyl-2-(fluoromethyl)-6-(trimethylsilyl)benzamide] were 22%, 81%, 100% and 97%.
Turning to `CN(C)NC(=O)c1c(Cl)cccc1[Si](C)(C)C` [Example 99, 2-Chloro-6-(trimethylsilyl)-2,2-dimethylhydrazide-benzoic acid], in experiment [1] (0.1 ppm in minimal media agar), the “In vitro (ppm) 0.1, Percent Inhibition” value is listed as 5%. Moreover, the “In vitro (ppm) 1, Percent Inhibition” value in experiment [1] (1 ppm in minimal media agar) stood at 72%. Also, the “In vitro (ppm) 10, Percent Inhibition” value in experiment [1] (10 ppm in minimal media agar) is 95%. Also, the “In vivo, percent disease control” value in the experiment on Ggt was found to be 59%.
With `CN(Cc1ccc(C(F)(F)F)cc1)C(=O)c1c(Cl)cccc1[Si](C)(C)C` [Example 103, 2-Chloro-N-methyl-N-[[4-(trifluoromethyl)phenyl]-methyl]-6-(trimethylsilyl)-benzamide], in experiment [1] (0.1 ppm in minimal media agar), the inhibition at 0.1 ppm was less than 0%. In addition, in experiment [1] (1 ppm in minimal media agar), the inhibition at 1 ppm is 55%. Moreover, the inhibition at 10 ppm in experiment [1] (10 ppm in minimal media agar) amounted to 92%. Also, the pest or weed control at 0.5 mg/pot in the experiment with Ggt was determined as 26%.
